Each block holds one molecule with its values, some of them ahead of it.
Columns and labels:
Experiment in all cases: competitive isoTOP-ABPP
Type in all cases: binding
[1] = molecular target: T1, ECH1 Delta(3,5)-Delta(2,4)-dienoyl-CoA isomerase, mitochondrial (Homo sapiens, UniProt Q13011); parameters: key to isoTOP-ABPP reactivity ratio at lysine Q13011_K112: R = MS1 peak area ratio, DMSO (heavy) / compound-treated (light); capped at 20; conditions: for R value (DMSO/fragment) for probe 1 labeling: Q13011_K112; for R value (DMSO/fragment) for probe 1 labeling / isoTOP-ABPP ratio (R) at liganded lysine Q13011_K112 / isoTOP-ABPP reactivity ratio at lysine Q13011_K112: 50 uM, in vitro; for R value (DMSO/fragment) for probe 1 labeling / isoTOP-ABPP reactivity ratio at lysine Q13011_K112: 231 sol; for isoTOP-ABPP ratio (R) at liganded lysine Q13011_K112: sol, 231
T1 construct: isoTOP-ABPP experiments performed in cell lysates (in vitro); endogenous in cells; host or cells: soluble proteome of human cancer cell lines (MDA-MB-231, Ramos, Jurkat)
T1 sequence (Q13011 34-328): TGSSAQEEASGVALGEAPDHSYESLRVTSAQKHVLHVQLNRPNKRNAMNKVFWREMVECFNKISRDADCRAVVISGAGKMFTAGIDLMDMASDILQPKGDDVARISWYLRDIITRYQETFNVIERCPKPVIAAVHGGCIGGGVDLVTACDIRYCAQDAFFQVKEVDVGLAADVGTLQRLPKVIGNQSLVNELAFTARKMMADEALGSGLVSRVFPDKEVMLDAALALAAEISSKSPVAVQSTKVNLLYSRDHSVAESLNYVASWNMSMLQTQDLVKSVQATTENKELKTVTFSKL
Description: (§1) In vitro covalent fragment treatment for isoTOP-ABPP. All compounds were made up as solutions in DMSO (100×) and were used at a final concentration of 50 μM for activated esters and 100 μM for guanidinylating agents. For each profiling sample, 0.5 ml of lysate was treated with 5 μl of the 100× compound stock solution or 5 μl of DMSO. Samples were treated with activated esters for
(§2) STP-alkyne labeling and click chemistry. For concentration-dependent reactivity measurements by isoTOP-ABPP, 0.5 ml proteome aliquots were treated at ambient temperature with 1 mM STP-alkyne 1 (5 μl of 100 mM stock in DMSO) and 0.1 mM STP alkyne 1 (5 μl of 10 mM stock in DMSO), respectively. For competitive isoTOP-ABPP, after in vitro fragment treatment (detailed above), the samples were labeled for 1 h at ambient temperature with 0.1 mM STP-alkyne 1 (5 μl of 10 mM stock in DMSO). Samples were conjugated by copper-mediated azide-alkyne cycloaddition (CuAAC) to either the light (1 mM STP-alkyne or fragment treated) or heavy (0.1 mM STP-alkyne or DMSO treated) TEV tags (10 μl of 5 mM stocks in DMSO, final concentration=100 μM) using tris(2-carboxyethyl)phosphine hydrochloride
(§3) R value calculation and processing. The ratios of light and heavy MS1 peaks for each unique peptide were quantified with a CIMAGE software using default parameters (3 MS1 acquisitions per peak and signal to noise threshold set to 2.5). For reactivity measurements by isoTOP-ABPP, the R value was calculated from the ratio of MS1 peak areas, comparing the 1 mM STP alkyne sample (light TEV tag) with the 0.1 mM STP alkyne sample (heavy TEV tag). For competitive isoTOP-ABPP, the R value was calculated from the ratio of MS1 peak areas, comparing the DMSO treated sample (heavy TEV tag) with the compound treated sample (light TEV tag). […] Ratios for unique peptide entries are calculated for each experiment; overlapping peptides with the same modified lysine (for example, different charge states, MudPIT chromatographic steps or tryptic termini) are grouped together and the median ratio is reported as the final ratio (R). The peptide ratios reported by CIMAGE were further filtered to ensure the removal or correction of low-quality ratios in each individual data set. The quality filters applied were the following: removal of half tryptic peptides; for ratios with high standard deviations from the median (90% of the median or above) the lowest ratio was taken instead of the median; removal of peptides with R=20 and only a single MS2 event triggered during the elution of the parent ion; manual annotation of all the peptides with ratios of 20, removing any peptides with low quality elution profiles that remained after the previous curation steps (only done for competitive isoTOP-ABPP).
(§4) Cross-data processing for fragment screening. For compound treated samples, biological replicates of the same condition were averaged, if the standard deviation was below 60% of the mean; otherwise, for lysines with at least one R value <4 for a particular compound, the lowest value of the ratio set was taken. For lysines, where all R values for a particular compound were ≥4, the average was reported. For peptides containing several possible modified lysines, the lysine with the highest number of quantification events was used for analysis and the remaining, redundant peptides were reported as alternative modification sites. Peptides included in the aggregate dataset (those used for further bioinformatics and statistical analyses) were required to have been quantified in 2 experiments for competitive isoTOP-ABPP. Lysines were categorized as liganded, if they had at least one ratio R≥4 (hit fragments). For liganded lysines with R=20 for all liganding events, lysines were required to have been quantified with R=20 in two separate experiments and were further required to have been quantified with R<20 in one additional experiment.

[2] = molecular target: T2, GABARAPL2 Gamma-aminobutyric acid receptor-associated protei (Homo sapiens, UniProt P60520); conditions: for isoTOP-ABPP ratio (R) at liganded lysine P60520_K46: sol, 231
T2 construct: isoTOP-ABPP experiments performed in cell lysates (in vitro); endogenous in cells; host or cells: soluble proteome of human cancer cell lines (MDA-MB-231, Ramos, Jurkat)
T2 sequence (P60520 1-116 limits assumed): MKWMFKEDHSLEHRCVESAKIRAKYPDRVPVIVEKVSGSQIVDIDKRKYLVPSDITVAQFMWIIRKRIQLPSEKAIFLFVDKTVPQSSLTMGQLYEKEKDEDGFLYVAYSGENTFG
In short: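 Fragments at 50 μM (activated esters) or 100 μM (guanidinylating agents) were incubated with 0.5 ml lysate before probe labeling. After 0.1 mM STP-alkyne for 1 h, samples were clicked to isotopically distinct TEV tags, and R taken as DMSO-over-compound MS1 peak-area ratio.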

[3] = molecular target: T3, SRP54 Signal recognition particle 54 kDa protein (Homo sapiens, UniProt P61011); parameters: key to isoTOP-ABPP reactivity ratio at lysine P61011_K81: R = MS1 peak area ratio, DMSO (heavy) / compound-treated (light); capped at 20; conditions: for isoTOP-ABPP ratio (R) at liganded lysine P61011_K81 / isoTOP-ABPP reactivity ratio at lysine P61011_K81: 50 uM, in vitro; for isoTOP-ABPP ratio (R) at liganded lysine P61011_K81: sol, 231; for isoTOP-ABPP reactivity ratio at lysine P61011_K81: 231 sol
T3 construct: isoTOP-ABPP experiments performed in cell lysates (in vitro); endogenous in cells; host or cells: soluble proteome of human cancer cell lines (MDA-MB-231, Ramos, Jurkat)
T3 sequence (P61011 whole entry): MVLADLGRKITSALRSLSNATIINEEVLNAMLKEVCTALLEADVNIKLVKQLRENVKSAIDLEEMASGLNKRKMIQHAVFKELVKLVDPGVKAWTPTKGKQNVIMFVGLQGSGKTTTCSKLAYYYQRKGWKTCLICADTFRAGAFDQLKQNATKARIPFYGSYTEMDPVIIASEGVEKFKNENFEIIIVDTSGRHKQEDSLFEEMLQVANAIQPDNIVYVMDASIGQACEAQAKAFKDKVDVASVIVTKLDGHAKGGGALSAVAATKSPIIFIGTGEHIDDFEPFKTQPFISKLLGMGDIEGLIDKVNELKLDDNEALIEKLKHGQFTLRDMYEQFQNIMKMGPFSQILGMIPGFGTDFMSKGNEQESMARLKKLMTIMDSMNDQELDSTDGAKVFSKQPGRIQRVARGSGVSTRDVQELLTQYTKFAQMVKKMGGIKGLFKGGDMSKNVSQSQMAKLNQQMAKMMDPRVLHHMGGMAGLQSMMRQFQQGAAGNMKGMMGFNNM
Description: as §1, §2, §3, §4

[4] = molecular target: T4, NUDT2 Bis(5-nucleosyl)-tetraphosphatase (Homo sapiens, UniProt P50583); parameters: key to isoTOP-ABPP reactivity ratio at lysine P50583_K89: R = MS1 peak area ratio, DMSO (heavy) / compound-treated (light); conditions: for isoTOP-ABPP ratio, lysine P50583_K89: possible other lysine P50583_K87; for R value (DMSO/fragment) for probe 1 labeling: P50583_K89; for R value (DMSO/fragment) for probe 1 labeling / isoTOP-ABPP ratio (R) at liganded lysine P50583_K89 / isoTOP-ABPP reactivity ratio at lysine P50583_K89: 50 uM, in vitro; for R value (DMSO/fragment) for probe 1 labeling / isoTOP-ABPP reactivity ratio at lysine P50583_K89: 231 sol; for isoTOP-ABPP ratio (R) at liganded lysine P50583_K89: sol, 231
T4 construct: isoTOP-ABPP experiments performed in cell lysates (in vitro); endogenous in cells
T4 sequence (P50583 whole entry, the tested form may be a part): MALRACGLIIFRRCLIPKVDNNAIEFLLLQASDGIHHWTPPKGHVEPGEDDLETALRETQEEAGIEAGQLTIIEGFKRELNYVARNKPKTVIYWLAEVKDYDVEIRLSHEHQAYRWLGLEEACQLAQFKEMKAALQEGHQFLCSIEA
Description: as §1, §2, §3, §4

Structure (SMILES): CC(C)(C)OC(=O)NCCCC(=O)Oc1ccc([N+](=O)[O-])cc1[N+](=O)[O-] [fragment 41, 2,4-Dinitrophenyl 4-((tert-butoxycarbonyl)amino)butanoate]
isoTOP-ABPP ratio (R) at liganded lysine Q13011_K112 [1]: 1.0
isoTOP-ABPP ratio (R) at liganded lysine P60520_K46 ([2]; 50 uM, in vitro): 1.0
isoTOP-ABPP ratio (R) at liganded lysine P61011_K81 [3]: 1.0
isoTOP-ABPP ratio (R) at liganded lysine P50583_K89 [4]: 1.0

Structure (SMILES): O=C(Oc1ccc([N+](=O)[O-])cc1[N+](=O)[O-])C1CCN(C(=O)OCc2ccccc2)CC1 [fragment 34, 1-Benzyl 4-(2,4-dinitrophenyl) piperidine-1,4-dicarboxylate]
isoTOP-ABPP ratio (R) at liganded lysine Q13011_K112 [1]: 1.1
isoTOP-ABPP ratio (R) at liganded lysine P61011_K81 [3]: 0.8
isoTOP-ABPP ratio (R) at liganded lysine P50583_K89 [4]: 1.0

Structure (SMILES): O=C(CCc1coc2cc(F)ccc2c1=O)Oc1ccc([N+](=O)[O-])cc1[N+](=O)[O-] [fragment 36, 2,4-Dinitrophenyl 3-(7-fluoro-4-oxo-4H-chromen-3-yl)propanoate]
isoTOP-ABPP ratio (R) at liganded lysine Q13011_K112 [1]: 1.3
isoTOP-ABPP ratio (R) at liganded lysine P61011_K81 [3]: 1.3
isoTOP-ABPP ratio (R) at liganded lysine P50583_K89 [4]: 0.9

Structure (SMILES): O=C(CC12CC3CC(CC(C3)C1)C2)Oc1ccc([N+](=O)[O-])cc1[N+](=O)[O-] [fragment 38, 2,4-Dinitrophenyl 2-(adamantan-1-yl)acetate]
isoTOP-ABPP ratio (R) at liganded lysine Q13011_K112 [1]: 0.9
isoTOP-ABPP ratio (R) at liganded lysine P60520_K46 ([2]; 50 uM, in vitro): 1.0
isoTOP-ABPP ratio (R) at liganded lysine P50583_K89 [4]: 0.9

Structure (SMILES): O=C(Oc1ccc([N+](=O)[O-])cc1[N+](=O)[O-])C(c1ccccc1)c1ccccc1 [fragment 30, 2,4-Dinitrophenyl 2,2-diphenylacetate]
isoTOP-ABPP reactivity ratio at lysine Q13011_K112 [1]: 0.9
isoTOP-ABPP reactivity ratio at lysine P61011_K81 [3]: 20.0
isoTOP-ABPP reactivity ratio at lysine P50583_K89 [4]: 1.1

The next lines start with the values.

isoTOP-ABPP ratio, lysine Q13011_K112 ([1]; 50 uM_231_sol_in vitro): 1.5
isoTOP-ABPP ratio, lysine P60520_K46 ([2]; 50 uM_231_sol_in vitro): 0.9
isoTOP-ABPP ratio, lysine P61011_K81 ([3]; 50 uM_231_sol_in vitro): 1.1
isoTOP-ABPP ratio, lysine P50583_K89 ([4]; 50 uM_231_sol_in vitro): 1.0
Structure (SMILES): O=C(Oc1c(F)c(F)cc(F)c1F)c1cc(C(F)(F)F)cc(C(F)(F)F)c1 [fragment 48, 2,3,5,6-Tetrafluorophenyl 3,5-bis(trifluoromethyl)benzoate]

R value (DMSO/fragment) for probe 1 labeling [1]: 4.7
R value (DMSO/fragment) for probe 1 labeling ([2]; P60520_K46, 50 uM, 231 sol, in vitro): 1.2
R value (DMSO/fragment) for probe 1 labeling [4]: 1.0
Structure (SMILES): O=C(CCc1cn(-c2ccccc2)nc1-c1ccccc1)Oc1c(F)c(F)c(F)c(F)c1F [fragment 19, Pentafluorophenyl 3-(1,3-diphenyl-1H-pyrazol-4-yl)propanoate]

isoTOP-ABPP reactivity ratio at lysine P61011_K81 [3]: 1.0
isoTOP-ABPP reactivity ratio at lysine P50583_K89 [4]: 0.9
Structure (SMILES): O=C(CCc1coc2cc(F)ccc2c1=O)Oc1c(F)c(F)c(F)c(F)c1F [fragment 26, Pentafluorophenyl 3-(7-fluoro-4-oxo-4H-chromen-3-yl)propanoate]

isoTOP-ABPP reactivity ratio at lysine Q13011_K112 [1]: 2.7
isoTOP-ABPP reactivity ratio at lysine P50583_K89 [4]: 0.7
Structure (SMILES): O=C(CN1C(=O)c2ccccc2C1=O)Oc1c(F)c(F)c(F)c(F)c1F [fragment 27, Pentafluorophenyl 2-(1,3-dioxoisoindolin-2-yl)acetate]

R value (DMSO/fragment) for probe 1 labeling [1]: 4.7
R value (DMSO/fragment) for probe 1 labeling [4]: 1.0
Structure (SMILES): COc1cc(CCC(=O)Oc2c(F)c(F)c(F)c(F)c2F)cc(OC)c1OC [fragment 23, Pentafluorophenyl 3-(3,4,5-trimethoxyphenyl)propanoate]

isoTOP-ABPP ratio, lysine Q13011_K112 ([1]; 100 uM_231_sol_in vitro): 1.3
isoTOP-ABPP ratio, lysine P60520_K46 ([2]; 100 uM_231_sol_in vitro): 20.0
isoTOP-ABPP ratio, lysine P50583_K89 ([4]; 100 uM_231_sol_in vitro): 20.0
reaction with K89 by isoTOP-ABPP ([4]; NUDT2 K89): preferentially reacting
Structure (SMILES): CC(C)(C)OC(=O)N=C(NC(=O)OC(C)(C)C)n1cccn1 [fragment 50, reference compound]

isoTOP-ABPP reactivity ratio at lysine Q13011_K112 [1]: 1.8
isoTOP-ABPP reactivity ratio at lysine P61011_K81 [3]: 0.8
isoTOP-ABPP reactivity ratio at lysine P50583_K89 [4]: 1.0
Structure (SMILES): CCn1cc(C(=O)Oc2c(F)c(F)c(F)c(F)c2F)c(=O)c2ccc(C)nc21 [fragment 28, Pentafluorophenyl 1-ethyl-7-methyl-4-oxo-1,4-dihydro-1,8-naphthyridine-3-carboxylate]

From US20210255193A1, “LYSINE REACTIVE PROBES AND USES THEREOF” (The Scripps Research Institute, priority 2017, published 2021)
